Results from US20230219904A1 (SYNGENTA CROP PROTECTION AG, priority 2020, published 2023).

Columns and labels:
Format in all cases: in vivo
[1] = system: Abutilon theophrasti (ABUTH); assay: Pre-emergence herbicidal glasshouse test (Table B1); conditions: evaluated after 13 days
In short: (§1)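 Pre: spray 1 d after sowing; post: spray after 8 d growth. Rate 500 g/h (default); vehicle acetone/water 50:50, 0.5% Tween 20. Glasshouse 24/16° C, 14 h light, 65% humidity. Readout % damage at 13 d, 5-point scale.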

[2] = system: Amaranthus retoflexus (AMARE); assay: as above; conditions: evaluated after 13 days
In short: as §1

[3] = system: Echinochloa crus-galh (ECHCG); assay: as above; conditions: evaluated after 13 days
In short: as §1

[4] = system: Ipomoea hederacea (IPOHE); assay: as above; conditions: evaluated after 13 days
In short: as §1

[5] = system: Setaria faberi (SETFA); assay: as above; conditions: evaluated after 13 days
In short: as §1

[6] = system: Abutilon theophrasti (ABUTH); assay: Post-emergence herbicidal glasshouse test (Table B1); conditions: evaluated after 13 days
In short: as §1

[7] = system: Amaranthus retoflexus (AMARE); assay: as above; conditions: evaluated after 13 days
In short: as §1

[8] = system: Echinochloa crus-galh (ECHCG); assay: as above; conditions: evaluated after 13 days
In short: as §1

[9] = system: Ipomoea hederacea (IPOHE); assay: as above; conditions: evaluated after 13 days
In short: as §1

[10] = system: Setaria faberi (SETFA); assay: as above; conditions: evaluated after 13 days
In short: as §1

[11] = system: ABUTH (Abutilon theophrasti); assay: Comparative test, PRE application (Table B2); conditions: evaluated after 14 days
Procedure: (§2) TABLE B2—COMPARATIVE TEST
(§3) Seeds of test species were sown in standard soil in pots. After cultivation for one day under controlled conditions in a glasshouse (at 24/16° C., day/night; 14 hours light; 65% humidity), the plants were sprayed with an aqueous spray solution derived from the formulation of the technical active ingredient in 0.6 ml acetone and 45 ml formulation solution containing 10.6% Emulsogen EL (Registry number 61791-12-6), 42.2% N-methyl pyrrolidone, 42.2% dipropylene glycol monomethyl ether (CAS RN 34590-94-8) and 0.2% X-77 (CAS RN 11097-66-8). The test plants were then grown in a glasshouse under controlled conditions in a glasshouse (at 24/16° C., day/night; 14 hours light; 65% humidity) and watered twice daily. After 14 days, the test was evaluated (100=total damage to plant; 0=no damage to plant).
(§4) Test species: ABUTH (Abutilon theophrasti); BRO′I′L (Bromus tectorum); ECHCG (Echinochloa crus-galli); SINAR (Sinapis arvensis).

[12] = system: BROTE (Bromus tectorum); assay: Comparative test, PRE application (Table B2); conditions: evaluated after 14 days
Procedure: as §2, §3, §4

[13] = system: ECHCG (Echinochloa crus-galli); assay: Comparative test, PRE application (Table B2); conditions: evaluated after 14 days
Procedure: as §2, §3, §4

[14] = system: SINAR (Sinapis arvensis); assay: Comparative test, PRE application (Table B2); conditions: evaluated after 14 days
Procedure: as §2, §3, §4

SMILES	PRE Application ABUTH, percentage damage on five-point scale ([1]; applied at 500 g/h)	PRE Application AMARE, percentage damage on five-point scale ([2]; applied at 500 g/h)	PRE Application ECHCG, percentage damage on five-point scale ([3]; applied at 500 g/h)	PRE Application IPOHE, percentage damage on five-point scale ([4]; applied)	PRE Application SETFA, percentage damage on five-point scale ([5]; applied at 500 g/h)	POST Application ABUTH, percentage damage on five-point scale ([6]; applied at 500 g/h)	POST Application AMARE, percentage damage on five-point scale ([7]; applied at 500 g/h)	POST Application ECHCG, percentage damage on five-point scale ([8]; applied at 500 g/h)	damage to plant ABUTH (100=total damage to plant; 0=no damage to plant) ([11]; 30 g/ha)	damage to plant ABUTH (100=total damage to plant; 0=no damage to plant) ([11]; 130 g/ha)	damage to plant ABUTH (100=total damage to plant; 0=no damage to plant) ([11]; 250 g/ha)	damage to plant BROTE (100=total damage to plant; 0=no damage to plant) ([12]; 30 g/ha)	damage to plant BROTE (100=total damage to plant; 0=no damage to plant) ([12]; 130 g/ha)	damage to plant BROTE (100=total damage to plant; 0=no damage to plant) ([12]; 250 g/ha)	damage to plant ECHCG (100=total damage to plant; 0=no damage to plant) ([13]; 30 g/ha)	damage to plant ECHCG (100=total damage to plant; 0=no damage to plant) ([13]; 130 g/ha)	damage to plant ECHCG (100=total damage to plant; 0=no damage to plant) ([13]; 250 g/ha)	damage to plant SINAR (100=total damage to plant; 0=no damage to plant) ([14]; 30 g/ha)	damage to plant SINAR (100=total damage to plant; 0=no damage to plant) ([14]; 130 g/ha)	damage to plant SINAR (100=total damage to plant; 0=no damage to plant) ([14]; 250 g/ha)	other results
CC(=O)Nc1c(OC(F)(F)F)ccc(C(=O)Nc2nnnn2C)c1Cl [Compound 1.002]	5 (5=80-100%)	5 (5=80-100%)	5 (5=80-100%)	1 (1=0-19%)	2 (2=20-39%)	5 (5=80-100%)	5 (5=80-100%)	5 (5=80-100%)	0	10	80	0	10	70	20	30	80	10	30	80	POST Application IPOHE, percentage damage on five-point scale ([9]; applied at 500 g/h): 5 (5=80-100%); POST Application SETFA, percentage damage on five-point scale ([10]; applied at 500 g/h): 5 (5=80-100%)
CCC(=O)Nc1c(OC(F)(F)F)ccc(C(=O)Nc2nnnn2C)c1Cl [Compound 1.007, 2-chloro-N-(1-methyltetrazol-5-yl)-3-(propanoylamino)-4-(trifluoromethoxy)benzamide]									0	60	90	0	0	20	20	70	90	10	60	100	PRE Application ABUTH, percentage damage on five-point scale ([1]; applied at 125 g/ha): 5 (5=80-100%); PRE Application AMARE, percentage damage on five-point scale ([2]; applied at 125 g/ha): 5 (5=80-100%); PRE Application ECHCG, percentage damage on five-point scale ([3]; applied at 125 g/ha): 5 (5=80-100%); PRE Application IPOHE, percentage damage on five-point scale ([4]; applied at 125 g/ha): 5 (5=80-100%); PRE Application SETFA, percentage damage on five-point scale ([5]; applied at 125 g/ha): 5 (5=80-100%); POST Application AMARE, percentage damage on five-point scale ([7]; applied at 125 g/ha): 5 (5=80-100%); POST Application ECHCG, percentage damage on five-point scale ([8]; applied at 125 g/ha): 5 (5=80-100%); POST Application IPOHE, percentage damage on five-point scale ([9]; applied at 125 g/ha): 4 (4=60-79%); POST Application SETFA, percentage damage on five-point scale ([10]; applied at 125 g/ha): 5 (5=80-100%)
Cn1nnnc1NC(=O)c1ccc(OC(F)(F)F)c(NC(=O)c2ccccn2)c1Cl [Compound 1.012, N-[2-chloro-3-[(1-methyltetrazol-5-yl)carbamoyl]-6-(trifluoromethoxy)phenyl]pyridine-2-carboxamide]									0	0	10	0	0	70	10	30	30	0	70	80	PRE Application ABUTH, percentage damage on five-point scale ([1]; applied at 125 g/ha): 5 (5=80-100%); PRE Application AMARE, percentage damage on five-point scale ([2]; applied at 125 g/ha): 5 (5=80-100%); PRE Application ECHCG, percentage damage on five-point scale ([3]; applied at 125 g/ha): 5 (5=80-100%); PRE Application IPOHE, percentage damage on five-point scale ([4]; applied at 125 g/ha): 4 (4=60-79%); PRE Application SETFA, percentage damage on five-point scale ([5]; applied at 125 g/ha): 5 (5=80-100%); POST Application ABUTH, percentage damage on five-point scale ([6]; applied at 125 g/ha): 4 (4=60-79%); POST Application AMARE, percentage damage on five-point scale ([7]; applied at 125 g/ha): 4 (4=60-79%); POST Application ECHCG, percentage damage on five-point scale ([8]; applied at 125 g/ha): 3 (3=40-59%); POST Application IPOHE, percentage damage on five-point scale ([9]; applied at 125 g/ha): 4 (4=60-79%); POST Application SETFA, percentage damage on five-point scale ([10]; applied at 125 g/ha): 4 (4=60-79%)
Cc1nnc(NC(=O)c2ccc(OC(F)(F)F)c(N3CCCCC3=O)c2Cl)o1 [Compound 2.004]	4 (4=60-79%)	5 (5=80-100%)	5 (5=80-100%)	1 (1=0-19%)	5 (5=80-100%)	5 (5=80-100%)	5 (5=80-100%)	5 (5=80-100%)													POST Application IPOHE, percentage damage on five-point scale ([9]; applied at 500 g/h): 5 (5=80-100%); POST Application SETFA, percentage damage on five-point scale ([10]; applied at 500 g/h): 5 (5=80-100%)
